Assay results from PMC10960024, “Diindoles produced from commensal microbiota metabolites function as endogenous CAR/Nr1i3 ligands” (Nature Communications, 2024).

Experiments:
hCAR LBD-SRC1 protein = target: T1, hCAR LBD-SRC1 protein (Homo sapiens, UniProt Q14994); test: Fluorescence thermal shift assay (TSA); type: binding; details: diindoles at 12.5 µM; APO Tm 51.5 °C; means of triplicates
T1 construct: The human CAR LBD (Lys^108 – Ser^352) was amplified by PCR from cDNA; HIS6; made in house; host or cells: E. coli BL21(DE3)
T1 sequence (Q14994 108-352): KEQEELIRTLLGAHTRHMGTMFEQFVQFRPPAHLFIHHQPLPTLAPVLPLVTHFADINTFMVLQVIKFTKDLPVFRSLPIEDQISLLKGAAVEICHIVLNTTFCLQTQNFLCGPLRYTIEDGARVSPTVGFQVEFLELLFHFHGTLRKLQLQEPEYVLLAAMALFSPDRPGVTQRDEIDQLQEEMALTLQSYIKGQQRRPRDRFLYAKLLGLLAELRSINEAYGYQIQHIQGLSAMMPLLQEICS
Protocol: Purified hCAR LBD-SRC1 protein was assayed in 137 mM NaCl, 2.7 mM KCl, 10 mM Na2HPO4, and 1.8 mM KH2PO4, 0.5% DMSO, pH 7.4, at a final concentration of 2.2 µM. SYPRO Orange was used at a final concentration of 10× (Invitrogen, S6650). Each sample was divided into three 25 µL replicates. Sample solutions were dispensed into 96-well optical reaction plates (Thermo Fisher Scientific, 4306737) and sealed with optical PCR plate sheets (Thermo Fisher Scientific, AB-1170). TSA experiments were carried out using a QuantStudio 12 K Flex Real Time PCR System (Applied Biosystems). The temperature was ramped up from 25 °C to 95 °C at a rate of 0.3 °C/min, and SYPRO orange fluorescence monitored. Raw fluorescence data and melting temperatures were determined using nonlinear regression curve fitting using GraphPad Prism 9.

GAL4-hCAR LBD = target: T2, GAL4-hCAR LBD (Homo sapiens, UniProt Q14994); test: HEK293T GAL4-hCAR dual transfection reporter assay with PK11195 (antagonist displacement); type: cell-based; details: read-out: HEK293 GAL4-hCAR EC50
T2 construct: chimeric yeast GAL4 DBD fused to an hCAR LBD; expressed in transfected cells; host or cells: HEK293T (ATCC, CRL-3216)
T2 sequence (Q14994 109-352 limits assumed): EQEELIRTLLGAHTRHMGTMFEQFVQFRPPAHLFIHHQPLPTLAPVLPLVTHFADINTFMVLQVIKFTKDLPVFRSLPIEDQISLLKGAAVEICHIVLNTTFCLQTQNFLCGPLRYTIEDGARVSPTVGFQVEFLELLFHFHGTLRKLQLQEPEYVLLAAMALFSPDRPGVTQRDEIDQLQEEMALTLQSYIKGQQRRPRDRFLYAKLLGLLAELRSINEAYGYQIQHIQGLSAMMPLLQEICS
Text: The GAL4-hCAR, UAS-Luc, pcDNA-GAL4, pGL4-Renilla-Luc and pGEM plasmids were generously provided by Dr. David Mangelsdorf. The GAL4-hCAR plasmid encodes a constitutively expressed chimeric yeast GAL4 DBD fused to an hCAR LBD. The UAS-Luc plasmid encodes a Firefly luciferase reporter under the control of a GAL4 response element. The pcDNA plasmid encodes a constitutively expressed GAL4 DBD and was used as a control vector to determine non-specific luminescence in all HEK293T cellular reporter assays. The pGL4-Renilla-Luc plasmid encodes a constitutively expressed Renilla luciferase reporter and was used as a transfection control in the HEK293T cellular reporter assays.
HEK293T cells (ATCC, CRL-3216) were seeded at a density of 40,000 cells per well in white flat-bottom 96-well microplates (Greiner CellStar, 655073) in Dulbecco’s Modified Eagle Medium (DMEM) (2.5 g/l glucose) supplemented with 10% stripped fetal bovine serum with 100 units/ml of penicillin and incubated for 24 h at 37 °C. Transfection was carried out using 0.3 µL/well of Lipofectamine 2000 (Thermo Fisher Scientific, 11668019). Cells were transfected with 10 ng/well of either pcDNA or GAL4-hCAR, 50 ng/well of UAS-Luc, 5 ng/well of pGL4-Renilla-Luc, and 85 ng/well of pGEM for a total of 150 ng/well of DNA. […] Cells were incubated for 16-hours to allow build-up of luciferase and then processed using the Dual-Glo Luciferase Assay System (Promega, E2940) as per the manufacturer’s instructions. Incubations were performed in four technical replicates.

[1] = tested on: cyp2b6, cyp3a4, sult2a1 mRNA in PHH; test: RT-qPCR of CAR target genes in primary human hepatocytes; type: cell-based; details: two donors, 48 h
Protocol: PHH culture, RNA extraction and gene expression analyses were performed as described previously. Primer sequences for cyp2b6, cyp3a4, sult2a1, and glyceraldehyde-3-phosphate dehydrogenase (gapdh) are shown in Supplementary Table 3.

[2] = tested on: mCAR target genes (cyp2b10, cyp3a11, sult2a1) in mouse liver; test: qPCR of mCAR target genes in mouse liver after intraperitoneal treatment; type: in vivo; details: for cyp2b10 expression in liver, wild-type mice: 25 mg/kg i.p. once daily for three days; for sult2a1 expression in liver: WT or Nr1i3-/- mice; for cyp3a11 expression in liver: mouse liver, with or without And pre-treatment
Protocol: (§1) 12–15 week-old C57BL/6 J mice were obtained from Jackson Laboratories and were housed on a standard 12 h light/dark cycle. Nr1i3^−/− mice with C57BL/6 J background were obtained from David Moore’s lab (PMID: 11057673) at Baylor College of Medicine, and used at 13–26 weeks of age. Wild-type male, female and Nr1i3^−/− male mice were used in this study, due to known sex-specific CAR activities. Mice were housed in groups of 2–5 mice per cage on a standard 12 h light/dark cycle and fed with rodent chow diet (Inotiv, Teklad rodent diet 2918). Temperature was maintained at 21 °C with a range of 21–24 °C and humidity at 16–51%. National Institute of Health guidelines for the care and use of laboratory animals were followed with all experiments performed as directed by the Institutional Animal Care and Use Committee at the University of Illinois, Urbana-Champaign (UIUC, IACUC protocol: 22183). Mice were acclimatized to the UIUC mouse facility for 2 weeks prior to experiments. DIM and DIE were dissolved in 5% DMSO in corn oil and injected intraperitoneally at 25 mg/kg once daily for three days. After 4 h of the third injection, mice were sacrificed to collect serum, livers and intestines. TCPOBOP was dissolved in corn oil and injected intraperitoneally at 3 mg/kg once and the livers collected after 3 days for further studies. When used to block CAR activity, 100 mg/kg androstenol was injected intraperitoneally 15 min prior to the first DIM or DIE treatment. RNA from mice livers was isolated using TRIzol (Invitrogen) reagent using the manufacturer’s instructions. 3–5 µg of RNA was used to synthesize cDNA with random primers (NEBioLabs) and Maxima Reverse Transcriptase kits (Thermo Fisher Scientific). cDNA was further diluted, and 50 ng was used for SYBR green (Thermo Fisher Scientific) based qRT-PCR. Relative gene expression was calculated by the delta Ct method and normalized to 36b4 levels as loading controls. qPCR primers for gene expression analysis are listed in Supplementary Table 3.

[3] = Diindole levels in tissues of WT and Nr1i3-/- mice; type: in vivo
Protocol: as §1, with “TCPOBOP was dissolved in corn oil and injected intraperitoneally at 3 mg/kg once and the livers collected after 3 days for further studies. When used to block CAR activity, 100 mg/kg androstenol was injected intraperitoneally 15 min prior to the first DIM or DIE treatment. RNA from mice livers was isolated using TRIzol (Invitrogen) reagent using the manufacturer’s instructions. 3–5 µg of RNA was used to synthesize cDNA with random primers (NEBioLabs) and Maxima Reverse Transcriptase kits (Thermo Fisher Scientific). cDNA was further diluted, and 50 ng was used for SYBR green (Thermo Fisher Scientific) based qRT-PCR.” left out

Row | SMILES | Tm (hCAR LBD-SRC1 protein) | EC50 (GAL4-hCAR LBD) | cyp2b6 mRNA expression [1] | cyp3a4 mRNA expression (joint CAR/PXR target gene) [1] | sult2a1 mRNA expression (non-target gene) [1] | cyp2b10 expression in liver, wild-type mice [2] | sult2a1 expression in liver [2] | cyp3a11 expression in liver [2] | compound levels in tissues of Nr1i3-/- versus WT mice ([3]; duodenum, jejunum, ileum, liver, male mice treated with diindoles) | compound levels in tissues of Nr1i3-/- versus WT mice ([3]; mouse, in vivo)
1 | CC(c1c[nH]c2ccccc12)c1c[nH]c2ccccc12 [DIE, 3,3’-diindolylethane] | 59.6 °C | 0.72 µM | selectively upregulated | more variable | no effects | robustly induced | did not show significant responses | did not affect | increased dramatically | –
2 | c1ccc2c(Cc3c[nH]c4ccccc34)c[nH]c2c1 [DIM, diindolylmethane] | 57.1 °C | 1.74 µM | selectively upregulated | more variable | no effects | robustly induced | did not show significant responses | did not affect | – | increased dramatically
